Assay results taken from the supplement of paper PMC10307832.

compound: NCC(=O)Nc1ccc(-n2nc(C(F)(F)F)cc2-c2ccc3c(ccc4ccccc43)c2)cc1 + CC(=O)Nc1cccc(-n2c(=O)n(C3CC3)c(=O)c3c(Nc4ccc(I)cc4F)n(C)c(=O)c(C)c32)c1 [Trametinib] (partner 0.02 µM); test: relative viability (nuclei count vs DMSO), 5 days (fraction); higher = more cells survive; conditions: first compound 0.06325 µM
Summary of the method: (§1)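 For relative viability, nuclei counts in treated wells were divided by those in vehicle wells. Lung cancer cell lines had been pin-tool dosed in 1536-well plates the day after seeding and cultured for 5 days, then fixed and stained in one step (final 0.05% Triton X-100, 1% formaldehyde, 1 ug/ml Hoechst) and imaged at 4×. Doses were one drug alone or a fixed anchor-drug dose plus five library-drug doses (not always all listed) in √10 steps, and values are duplicate-plate medians.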

In order of falling relative viability:
1. BEN  1.15
2. HCC-44  1.1
3. SW 900  1.04
4. NCI-H2170  0.91
5. ChaGo-K-1  0.903
6. LOU-NH91  0.832
7. HCC-78  0.807
8. HARA  0.771
9. LK-2  0.751
10. NCI-H596  0.725
11. NCI-H2405  0.721
12. NCI-H522  0.684
13. LU99A  0.678
14. COR-L23  0.637
15. H3255  0.579
16. SK-MES-1  0.555
17. NCI-H1648  0.533
18. COR-L 105  0.482
19. NCI-H322M  0.482
20. HOP-62  0.378
21. LCLC-97TM1  0.215
22. NCI-H2087  0.209

same assay, conditions: first compound 0.2 µM

In order of rising relative viability:
1. LCLC-97TM1  0.213
2. NCI-H2087  0.214
3. NCI-H727  0.351
4. HOP-62  0.378
5. HCC-366  0.467
6. COR-L 105  0.491
7. NCI-H2085  0.507
8. NCI-H838  0.521
9. NCI-H322M  0.537
10. COR-L23  0.568
11. LU99A  0.569
12. NCI-H1648  0.573
13. NCI-H1993  0.586
14. HARA  0.586
15. H3255  0.592
16. SK-MES-1  0.612
17. NCI-H2126  0.626
18. SW 1573  0.637
19. NCI-H1650  0.648
20. NCI-H2405  0.67
21. LCLC-103H  0.694
22. LK-2  0.703
23. NCI-H520  0.747
24. NCI-H522  0.781
25. HCC-78  0.804
26. LOU-NH91  0.812
27. NCI-H596  0.827
28. EMC-BAC-2  0.877
29. ChaGo-K-1  0.882
30. NCI-H1666  0.914
31. NCI-H2342  0.965
32. NCI-H2170  0.989
33. SW 900  1
34. HCC-44  1.05
35. BEN  1.05

same assay, conditions: first compound 0.6325 µM

In order of rising relative viability:
1. NCI-H2087  0.181
2. LCLC-97TM1  0.198
3. NCI-H727  0.346
4. HCC-366  0.354
5. HOP-62  0.368
6. COR-L 105  0.416
7. NCI-H838  0.43
8. NCI-H322M  0.5
9. SK-MES-1  0.511
10. NCI-H2085  0.547
11. COR-L23  0.549
12. NCI-H2126  0.553
13. LU99A  0.56
14. NCI-H1648  0.563
15. SW 1573  0.565
16. H3255  0.629
17. NCI-H2405  0.635
18. NCI-H1993  0.64
19. HARA  0.659
20. LCLC-103H  0.67
21. NCI-H520  0.678
22. SW 900  0.736
23. NCI-H1650  0.769
24. HCC-78  0.788
25. LOU-NH91  0.803
26. LK-2  0.826
27. NCI-H596  0.83
28. ChaGo-K-1  0.83
29. NCI-H2342  0.833
30. NCI-H1666  0.868
31. NCI-H2170  0.884
32. NCI-H522  0.92
33. BEN  0.938
34. EMC-BAC-2  0.96
35. HCC-44  1.11

same assay, conditions: first compound 2 µM

In order of rising relative viability:
1. NCI-H2087  0.185
2. LCLC-97TM1  0.189
3. HCC-366  0.271
4. HOP-62  0.336
5. NCI-H727  0.394
6. NCI-H838  0.411
7. COR-L 105  0.432
8. SW 1573  0.476
9. LU99A  0.48
10. COR-L23  0.491
11. NCI-H1648  0.506
12. NCI-H1993  0.515
13. NCI-H2126  0.54
14. NCI-H322M  0.547
15. SK-MES-1  0.593
16. LCLC-103H  0.618
17. NCI-H2085  0.626
18. NCI-H1650  0.642
19. H3255  0.674
20. NCI-H520  0.679
21. LK-2  0.686
22. HCC-78  0.705
23. NCI-H2405  0.734
24. NCI-H2342  0.776
25. SW 900  0.78
26. LOU-NH91  0.795
27. NCI-H522  0.813
28. ChaGo-K-1  0.842
29. NCI-H1666  0.851
30. EMC-BAC-2  0.887
31. NCI-H2170  0.912
32. HARA  0.919
33. HCC-44  1.02
34. BEN  1.11
35. NCI-H596  1.25

compound: NCC(=O)Nc1ccc(-n2nc(C(F)(F)F)cc2-c2ccc3c(ccc4ccccc43)c2)cc1 + CCNC(=O)c1noc(-c2cc(C(C)C)c(O)cc2O)c1-c1ccc(CN2CCOCC2)cc1 [Luminespib] (partner 0.01 µM); test: as above; conditions: first compound 0.02 µM
Summary of the method: as §1

In order of rising relative viability:
1. NCI-H2087  0.151
2. LK-2  0.173
3. NCI-H520  0.193
4. NCI-H1650  0.202
5. SW 1573  0.252
6. BEN  0.254
7. LU99A  0.261
8. NCI-H727  0.325
9. NCI-H838  0.328
10. LOU-NH91  0.334
11. NCI-H2085  0.537
12. NCI-H1623  0.552
13. COR-L23  0.599
14. ChaGo-K-1  0.614
15. NCI-H2342  0.626
16. NCI-H2405  0.686
17. NCI-H2170  0.738
18. HARA  0.773
19. H3255  0.781
20. SK-MES-1  0.828
21. LCLC-97TM1  0.869
22. NCI-H1993  0.887
23. HOP-62  0.887
24. NCI-H2126  0.904
25. COR-L 105  0.915
26. NCI-H322M  0.919
27. LCLC-103H  0.932
28. NCI-H522  0.97
29. NCI-H1666  0.982
30. HCC-44  1.1
31. EMC-BAC-2  1.11
32. NCI-H596  1.14
